Reference: ChEMBL document CHEMBL1146038, “Hassallidin B--second antifungal member of the Hassallidin family” (2006)
≈ marks a conversion by molar mass, not a printed value. Positions of bridges follow the written chain, without caps; N, C: chain ends. Non-standard residues stand in square brackets, D forms with d. Residues, ends and D or L forms follow the SMILES beside them. *: point of attachment. X3 = CCCCCCCCCCCC(O[C@@H]1O[C@@H](C)[C@H](O)[C@@H](O)[C@H]1O)C(O)C(=O)*; X2 = OC[C@H]1O[C@@H](*)[C@@H](O)[C@@H](O)[C@@H]1O; NMeT = CN[C@H](C(=O)O)[C@@H](C)O; X1 = CCCCCCCCCCCC(O)C(O)C(=O)*; Dhb = C/C=C(\N)C(=O)O

Legend:
Format in all cases: functional
Candida albicans [1] = test: Antifungal activity against Candida albicans SC 5314
Candida albicans [2] = test: Antifungal activity against Candida albicans ATCC 44374
Candida parapsilosis [3] = test: Antifungal activity against Candida parapsilosis ATCC 22019; conditions: Lodderomyces parapsilosis
Cryptococcus neoformans [4] = test: Antifungal activity against Cryptococcus neoformans ATCC 90112
Candida tropicalis [5] = test: Antifungal activity against Candida tropicalis ATCC 90874
Pichia kudriavzevii [6] = test: Antifungal activity against Candida krusei ATCC 90878
Pichia kudriavzevii [7] = test: Antifungal activity against Candida krusei ATCC 6258
Cryptococcus neoformans [8] = test: Antifungal activity against Cryptococcus neoformans CBS 6955
Candida parapsilosis [9] = test: Antifungal activity against Candida parapsilosis ATCC 90018; conditions: Lodderomyces parapsilosis
Cryptococcus neoformans [10] = test: Antifungal activity against Cryptococcus neoformans DSM 6973
Nakaseomyces glabratus [11] = test: Antifungal activity against Candida glabrata ATCC 90030
Cryptococcus neoformans [12] = test: Antifungal activity against Cryptococcus neoformans ATCC 34543
Candida albicans [13] = test: Antifungal activity against Candida albicans ATCC 24433
Nakaseomyces glabratus [14] = test: Antifungal activity against Candida glabrata DSM 11950
Candida albicans [15] = test: Antifungal activity against Candida albicans ATCC 90028
Candida tropicalis [16] = test: Antifungal activity against Candida tropicalis ATCC 750

Row | Compound | MFC (Candida albicans [1]) [µg/mL] | MIC (Candida albicans [1]) [µg/mL] | MFC (Candida albicans [2]) [µg/mL] | MIC (Candida albicans [2]) [µg/mL] | MFC (Candida parapsilosis [3]) [µg/mL] | MIC (Candida parapsilosis [3]) [µg/mL] | MFC (Cryptococcus neoformans [4]) [µg/mL] | MIC (Cryptococcus neoformans [4]) [µg/mL] | MFC (Candida tropicalis [5]) [µg/mL] | MIC (Candida tropicalis [5]) [µg/mL] | MFC (Pichia kudriavzevii [6]) [µg/mL] | MIC (Pichia kudriavzevii [6]) [µg/mL] | MFC (Pichia kudriavzevii [7]) [µg/mL] | MIC (Pichia kudriavzevii [7]) [µg/mL] | MFC (Cryptococcus neoformans [8]) [µg/mL] | MIC (Cryptococcus neoformans [8]) [µg/mL] | MFC (Candida parapsilosis [9]) [µg/mL] | MIC (Candida parapsilosis [9]) [µg/mL] | MFC (Cryptococcus neoformans [10]) [µg/mL] | MIC (Cryptococcus neoformans [10]) [µg/mL] | other results
1 | C/C=C1\NC(=O)[C@H](Cc2ccc(O)cc2)NC(=O)[C@H]([C@@H](C)O)NC(=O)[C@@H](NC(=O)[C@@H](NC(=O)C(O)C(O)CCCCCCCCCCC)[C@@H](C)O)[C@@H](C)OC(=O)[C@H](CCC(N)=O)NC(=O)[C@H]([C@@H](C)O[C@@H]2O[C@H](CO)[C@@H](O)[C@H](O)[C@@H]2O)N(C)C(=O)CNC(=O)[C@H](CCC(N)=O)NC1=O (some centres undefined) [HASSALLIDIN A] (X1-TTTY[Dhb]QG[NMeT](X2)Q; ester 2-C) | 8 (≈ 5.79 µM) | 4 (≈ 2.89 µM) | 4 (≈ 2.89 µM) | 4 (≈ 2.89 µM) | 8 (≈ 5.79 µM) | 8 (≈ 5.79 µM) | 8 (≈ 5.79 µM) | 4 (≈ 2.89 µM) | 8 (≈ 5.79 µM) | 8 (≈ 5.79 µM) | 8 (≈ 5.79 µM) | 8 (≈ 5.79 µM) | 8 (≈ 5.79 µM) | 8 (≈ 5.79 µM) | 8 (≈ 5.79 µM) | 4 (≈ 2.89 µM) | 16 (≈ 11.6 µM) | 8 (≈ 5.79 µM) | 8 (≈ 5.79 µM) | 4 (≈ 2.89 µM) | MFC (Nakaseomyces glabratus [11]): 8 µg/mL (≈ 5.79 µM); MIC (Nakaseomyces glabratus [11]): 8 µg/mL (≈ 5.79 µM); MFC (Cryptococcus neoformans [12]): 8 µg/mL (≈ 5.79 µM); MIC (Cryptococcus neoformans [12]): 4 µg/mL (≈ 2.89 µM); MFC (Candida albicans [13]): 4 µg/mL (≈ 2.89 µM); MIC (Candida albicans [13]): 4 µg/mL (≈ 2.89 µM); MFC (Nakaseomyces glabratus [14]): 8 µg/mL (≈ 5.79 µM); MIC (Nakaseomyces glabratus [14]): 8 µg/mL (≈ 5.79 µM); MFC (Candida albicans [15]): 4 µg/mL (≈ 2.89 µM); MIC (Candida albicans [15]): 4 µg/mL (≈ 2.89 µM); MFC (Candida tropicalis [16]): 4 µg/mL (≈ 2.89 µM); MIC (Candida tropicalis [16]): 4 µg/mL (≈ 2.89 µM)
2 | C/C=C1\NC(=O)[C@H](Cc2ccc(O)cc2)NC(=O)[C@H]([C@@H](C)O)NC(=O)[C@@H](NC(=O)[C@@H](NC(=O)C(O)C(CCCCCCCCCCC)O[C@@H]2O[C@@H](C)[C@H](O)[C@@H](O)[C@H]2O)[C@@H](C)O)[C@@H](C)OC(=O)[C@H](CCC(N)=O)NC(=O)[C@H]([C@@H](C)O[C@@H]2O[C@H](CO)[C@@H](O)[C@H](O)[C@@H]2O)N(C)C(=O)CNC(=O)[C@H](CCC(N)=O)NC1=O (some centres undefined) (X3-TTTY[Dhb]QG[NMeT](X2)Q; ester 2-C) | 8 (≈ 5.23 µM) | 8 (≈ 5.23 µM) | 16 (≈ 10.5 µM) | 8 (≈ 5.23 µM) | 16 (≈ 10.5 µM) | 8 (≈ 5.23 µM) | 8 (≈ 5.23 µM) | 8 (≈ 5.23 µM) | 16 (≈ 10.5 µM) | 8 (≈ 5.23 µM) | 16 (≈ 10.5 µM) | 16 (≈ 10.5 µM) | 16 (≈ 10.5 µM) | 8 (≈ 5.23 µM) | 8 (≈ 5.23 µM) | 8 (≈ 5.23 µM) | > 16 | 16 (≈ 10.5 µM) | 8 (≈ 5.23 µM) | 8 (≈ 5.23 µM) | MFC (Nakaseomyces glabratus [11]): 16 µg/mL (≈ 10.5 µM); MIC (Nakaseomyces glabratus [11]): 16 µg/mL (≈ 10.5 µM); MFC (Cryptococcus neoformans [12]): 8 µg/mL (≈ 5.23 µM); MIC (Cryptococcus neoformans [12]): 8 µg/mL (≈ 5.23 µM); MFC (Candida albicans [13]): 16 µg/mL (≈ 10.5 µM); MIC (Candida albicans [13]): 16 µg/mL (≈ 10.5 µM); MFC (Nakaseomyces glabratus [14]): 16 µg/mL (≈ 10.5 µM); MIC (Nakaseomyces glabratus [14]): 16 µg/mL (≈ 10.5 µM); MFC (Candida albicans [15]): 8 µg/mL (≈ 5.23 µM); MIC (Candida albicans [15]): 8 µg/mL (≈ 5.23 µM); MFC (Candida tropicalis [16]): 16 µg/mL (≈ 10.5 µM); MIC (Candida tropicalis [16]): 16 µg/mL (≈ 10.5 µM)
